From patent US12391679B2, “Benzamide-substituted bicyclic imidazo- and pyrazolo-fused -pyridine, -pyrimide, and -pyridazine compounds for treatment of inflammatory diseases” (ONCO3R Therapeutics BV, priority 2019, dated 2025)
Like-named read-outs stand apart in the source and are kept apart here.

Key:
[1] = test system: LPS-induced TNFα in monocytes; experiment: Monocytes assay: LPS-triggered TNFα (ELISA); assay type: cell-based, human; details: LPS-triggered TNFα inhibition
How it was run: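 CD14+ monocytes were magnetically isolated from human buffy-coat PBMCs, preincubated with compound 1 h at 37 °C (0.2% DMSO), then stimulated with LPS at 200 ng/mL for 4 h. Supernatant TNFα was measured by luminescent sandwich ELISA; percentage inhibition was calculated against controls for each concentration.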

SIK1 = molecular target: T1, SIK1 (Homo sapiens, UniProt P57059); experiment: ADP-Glo kinase assay, SIK1; assay type: biochemical
T1 construct: purchased Carna Biosciences 02-131
T1 sequence (P57059 whole entry): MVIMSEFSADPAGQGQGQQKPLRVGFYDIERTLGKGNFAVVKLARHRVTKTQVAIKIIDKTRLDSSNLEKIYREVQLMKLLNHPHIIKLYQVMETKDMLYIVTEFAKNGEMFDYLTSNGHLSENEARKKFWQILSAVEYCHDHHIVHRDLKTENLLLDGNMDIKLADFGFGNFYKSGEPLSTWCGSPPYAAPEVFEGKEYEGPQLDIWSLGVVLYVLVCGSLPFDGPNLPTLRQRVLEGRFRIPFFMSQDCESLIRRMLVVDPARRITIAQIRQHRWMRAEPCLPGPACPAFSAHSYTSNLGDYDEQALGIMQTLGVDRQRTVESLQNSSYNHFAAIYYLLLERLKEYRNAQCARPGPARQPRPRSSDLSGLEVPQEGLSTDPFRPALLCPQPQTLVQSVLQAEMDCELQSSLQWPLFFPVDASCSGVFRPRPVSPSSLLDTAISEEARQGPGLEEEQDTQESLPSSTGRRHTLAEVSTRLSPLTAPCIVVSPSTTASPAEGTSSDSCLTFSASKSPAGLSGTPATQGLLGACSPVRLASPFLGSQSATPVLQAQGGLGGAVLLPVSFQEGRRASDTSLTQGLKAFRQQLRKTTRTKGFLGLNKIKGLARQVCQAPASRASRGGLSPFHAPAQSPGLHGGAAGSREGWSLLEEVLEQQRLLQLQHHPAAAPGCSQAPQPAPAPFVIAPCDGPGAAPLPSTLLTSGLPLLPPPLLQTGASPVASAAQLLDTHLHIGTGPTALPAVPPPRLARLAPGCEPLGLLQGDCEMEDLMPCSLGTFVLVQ
How it was run: (§1)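 Luminescent ADP-Glo readout of ADP formed. Enzyme-substrate mix with ATP, reaction 120 min at RT, then 40 min ATP depletion and 30 min detection. Controls were 1% DMSO (negative) and 10 μM staurosporine (positive), both final.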

SIK3 = molecular target: T2, SIK3 (Homo sapiens, UniProt Q9Y2K2); experiment: ADP-Glo kinase assay, SIK3; assay type: biochemical
T2 construct: purchased SignalChem S12-11G-100
T2 sequence (Q9Y2K2 59-365 limits assumed): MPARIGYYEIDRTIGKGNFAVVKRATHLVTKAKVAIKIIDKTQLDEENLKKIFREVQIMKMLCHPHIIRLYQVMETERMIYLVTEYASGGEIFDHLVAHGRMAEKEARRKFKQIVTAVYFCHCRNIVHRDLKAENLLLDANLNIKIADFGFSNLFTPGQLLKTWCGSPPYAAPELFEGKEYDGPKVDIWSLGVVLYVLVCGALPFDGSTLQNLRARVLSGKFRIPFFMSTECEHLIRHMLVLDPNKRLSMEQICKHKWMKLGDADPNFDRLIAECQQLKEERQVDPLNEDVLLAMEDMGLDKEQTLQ
How it was run: as §1

[2] = ADP-Glo, AMARA 45 μM, 5 μM ATP, 120 min, average IC50

| EC50 ([1]; Homo sapiens, Monocyte) [nM] | IC50 (SIK1) [nM] | IC50 (SIK3) [nM] | EC50 [1] [nM] | IC50 (SIK1; [2]) [nM] | IC50 (SIK3; [2]) [nM] | SMILES |
| --- | --- | --- | --- | --- | --- | --- |
| 100 to 1000 | > 500 | 10 to 100 | – | – | – | COc1cc(-c2cnc3cc([C@@](C)(O)C4CC4)ccn23)cc(OC(F)F)c1C(=O)NC1CC1 (single isomer, unassigned) [Cpd 162, N-cyclopropyl-4-[7-(1-cyclopropyl-1-hydroxy-ethyl)imidazo[1,2-a]pyridin-3-yl]-2-(difluoromethoxy)-6-methoxy-benzamide] |
| – | – | – | 100 to 1000 | > 500 | 10 to 100 | COc1cc(-c2cnc3cc([C@@](C)(O)C4CC4)ccn23)cc(OC(F)F)c1C(=O)NC1CC1 (single isomer, unassigned) [Cpd 163, N-cyclopropyl-4-[7-(1-cyclopropyl-1-hydroxy-ethyl)imidazo[1,2-a]pyridin-3-yl]-2-(difluoromethoxy)-6-methoxy-benzamide] |
| 100 to 1000 | > 500 | 10 to 100 | – | – | – | CC[C@](C)(O)c1ccn2c(-c3cc(OC)c(C(=O)NC4CC4)c(OC(F)F)c3)cnc2c1 (single isomer, unassigned) [Cpd 164, N-cyclopropyl-2-(difluoromethoxy)-4-[7-(1-hydroxy-1-methyl-propyl)imidazo[1,2-a]pyridin-3-yl]-6-methoxy-benzamide] |
| – | – | – | 100 to 1000 | > 500 | 10 to 100 | CC[C@](C)(O)c1ccn2c(-c3cc(OC)c(C(=O)NC4CC4)c(OC(F)F)c3)cnc2c1 (single isomer, unassigned) [Cpd 165, N-cyclopropyl-2-(difluoromethoxy)-4-[7-(1-hydroxy-1-methyl-propyl)imidazo[1,2-a]pyridin-3-yl]-6-methoxy-benzamide] |
| 1000 to 5000 | > 500 | 10 to 100 | – | – | – | COc1cc(-c2cnc3cc(C(C)N4CCCCC4)ccn23)cc(OC(F)F)c1C(=O)NC1CC1 (stereo not drawn) [Cpd 146, N-cyclopropyl-2-(difluoromethoxy)-6-methoxy-4-[7-[1-(1-piperidyl)ethyl]imidazo[1,2-a]pyridin-3-yl]benzamide] |
| 100 to 1000 | > 500 | 10 to 100 | – | – | – | COc1cc(-c2cnc3cc(C(C)(C)CN4CCOCC4)ccn23)cc(OC(F)F)c1C(=O)NC1CC1 [Cpd 160, N-cyclopropyl-2-(difluoromethoxy)-4-[7-(1,1-dimethyl-2-morpholino-ethyl)imidazo[1,2-a]pyridin-3-yl]-6-methoxy-benzamide] |
| 100 to 1000 | > 500 | 0.01 to 10 | – | – | – | COc1cc(-c2cnc3cc(C4CCOCC4)c(F)cn23)cc(OC(F)F)c1C(=O)NC1CC1 [Cpd 166, N-cyclopropyl-2-(difluoromethoxy)-4-(6-fluoro-7-tetrahydropyran-4-yl-imidazo[1,2-a]pyridin-3-yl)-6-methoxy-benzamide] |
| 100 to 1000 | > 500 | 10 to 100 | – | – | – | COc1cc(-c2cnc3cc(C4COCCN4C)ccn23)cc(OC(F)F)c1C(=O)NC1CC1 (stereo not drawn) [Cpd 193, N-cyclopropyl-2-(difluoromethoxy)-6-methoxy-4-[7-(4-methylmorpholin-3-yl)imidazo[1,2-a]pyridin-3-yl]benzamide] |
| 0.1 to 100 | 100 to 500 | 0.01 to 10 | – | – | – | COc1cc(-c2cnn3cc(C4(C#N)CC4)ccc23)cc(OC(F)F)c1C(=O)N[C@@H]1C[C@@H]1F [Cpd 235, 4-[6-(1-cyanocyclopropyl)pyrazolo[1,5-a]pyridin-3-yl]-2-(difluoromethoxy)-N-[(1R,2S)-2-fluorocyclopropyl]-6-methoxy-benzamide] |
| 0.1 to 100 | > 500 | 0.01 to 10 | – | – | – | COc1cc(-c2cnn3cc(C(C)(C)COS(C)(=O)=O)ccc23)cc(OC(F)F)c1C(=O)N[C@@H]1C[C@@H]1F [Cpd 267, [2-[3-[3-(difluoromethoxy)-4-[[(1R,2S)-2-fluorocyclopropyl]carbamoyl]-5-methoxy-phenyl]pyrazolo[1,5-a]pyridin-6-yl]-2-methyl-propyl]methanesulfonate] |

Further lines, the compound ahead of its results:

| SMILES | EC50 ([1]; Homo sapiens, Monocyte) [nM] | IC50 (SIK1) [nM] | IC50 (SIK3) [nM] | EC50 [1] [nM] | IC50 (SIK1; [2]) [nM] | IC50 (SIK3; [2]) [nM] |
| --- | --- | --- | --- | --- | --- | --- |
| COc1cc(-c2cnc3cc(C(C)(C)C#N)ccn23)cc(OC)c1C(=O)NC1CC1 [Cpd 28, 4-[7-(1-cyano-1-methyl-ethyl)imidazo[1,2-a]pyridin-3-yl]-N-cyclopropyl-2,6-dimethoxy-benzamide] | 100 to 1000 | > 500 | 10 to 100 | – | – | – |
| COc1cc(-c2cnc3cc(C4(C#N)CC4)ccn23)cc(OC(F)F)c1C(=O)NC1CC1 [Cpd 33, 4-[7-(1-cyanocyclopropyl)imidazo[1,2-a]pyridin-3-yl]-N-cyclopropyl-2-(difluoromethoxy)-6-methoxy-benzamide] | 0.1 to 100 | 100 to 500 | 0.01 to 10 | – | – | – |
| COc1cc(-c2cnc3cc(C4CN(C(C)=O)C4)ccn23)cc(OC(F)F)c1C(=O)NC1CC1 [Cpd 63, 4-[7-(1-acetylazetidin-3-yl)imidazo[1,2-a]pyridin-3-yl]-N-cyclopropyl-2-(difluoromethoxy)-6-methoxy-benzamide] | 100 to 1000 | 100 to 500 | 0.01 to 10 | – | – | – |
| COc1cc(-c2cnc3cc(C4CCCN(C(=O)OC(C)(C)C)C4)ccn23)cc(OC(F)F)c1C(=O)NC1CC1 (stereo not drawn) [Cpd 64, tert-butyl 3-[3-[4-(cyclopropylcarbamoyl)-3-(difluoromethoxy)-5-methoxy-phenyl]imidazo[1,2-a]pyridin-7-yl]piperidine-1-carboxylate] | 100 to 1000 | > 500 | 0.01 to 10 | – | – | – |
| COc1cc(-c2cnc3cc(C(C)(C)C#N)ccn23)cc(OC(F)F)c1C(=O)N1CC(F)(F)C1 [Cpd 69, 2-[3-[4-(3,3-difluoroazetidine-1-carbonyl)-3-(difluoromethoxy)-5-methoxy-phenyl]imidazo[1,2-a]pyridin-7-yl]-2-methyl-propanenitrile] | 100 to 1000 | > 500 | 0.01 to 10 | – | – | – |
| COc1cc(-c2cnc3cc(C(C)(C)C#N)ccn23)cc(OC(F)F)c1C(=O)NCC(F)F [Cpd 70, 4-[7-(1-cyano-1-methyl-ethyl)imidazo[1,2-a]pyridin-3-yl]-N-(2,2-difluoroethyl)-2-(difluoromethoxy)-6-methoxy-benzamide] | 100 to 1000 | > 500 | 0.01 to 10 | – | – | – |
| COc1cc(-c2cnc3cc(C(C)(C)CN)ccn23)cc(OC(F)F)c1C(=O)NC1CC1 [Cpd 93, 4-[7-(2-amino-1,1-dimethyl-ethyl)imidazo[1,2-a]pyridin-3-yl]-N-cyclopropyl-2-(difluoromethoxy)-6-methoxy-benzamide] | 100 to 1000 | > 500 | 10 to 100 | – | – | – |
| COc1cc(-c2cnn3cc(C4CCOCC4)cnc23)cc(OC(F)F)c1C(=O)NC1CC1 [Cpd 95, N-cyclopropyl-2-(difluoromethoxy)-6-methoxy-4-(6-tetrahydropyran-4-ylpyrazolo[1,5-a]pyrimidin-3-yl)benzamide] | 100 to 1000 | > 500 | 0.01 to 10 | – | – | – |
| COc1cc(-c2cnc3cc(C(C)(C)C#N)ccn23)cc(OC(F)F)c1C(=O)N1CC(F)C1 [Cpd 96, 2-[3-[3-(difluoromethoxy)-4-(3-fluoroazetidine-1-carbonyl)-5-methoxy-phenyl]imidazo[1,2-a]pyridin-7-yl]-2-methyl-propanenitrile] | 100 to 1000 | > 500 | 0.01 to 10 | – | – | – |
| COc1cc(-c2cnc3cc(C(C)(C)N)ccn23)cc(OC(F)F)c1C(=O)NC1CC1 [Cpd 106, 4-[7-(1-amino-1-methyl-ethyl)imidazo[1,2-a]pyridin-3-yl]-N-cyclopropyl-2-(difluoromethoxy)-6-methoxy-benzamide] | 100 to 1000 | > 500 | 0.01 to 10 | – | – | – |
| COC(=O)C1(c2ccn3c(-c4cc(OC)c(C(=O)NC5CC5)c(OC(F)F)c4)cnc3c2)CC1 [Cpd 113, methyl 1-[3-[4-(cyclopropylcarbamoyl)-3-(difluoromethoxy)-5-methoxy-phenyl]imidazo[1,2-a]pyridin-7-yl]cyclopropanecarboxylate] | 100 to 1000 | > 500 | 0.01 to 10 | – | – | – |
| CCOC(C)(C)c1ccn2c(-c3cc(OC)c(C(=O)NC4CC4)c(OC(F)F)c3)cnc2c1 [Cpd 128, N-cyclopropyl-2-(difluoromethoxy)-4-[7-(1-ethoxy-1-methyl-ethyl)imidazo[1,2-a]pyridin-3-yl]-6-methoxy-benzamide] | 100 to 1000 | > 500 | 10 to 100 | – | – | – |
| COc1cc(-c2cnc3cc(C(C)(O)C4CC4)ccn23)cc(OC(F)F)c1C(=O)NC1CC1 (stereo not drawn) [Cpd 138, N-cyclopropyl-4-[7-(1-cyclopropyl-1-hydroxy-ethyl)imidazo[1,2-a]pyridin-3-yl]-2-(difluoromethoxy)-6-methoxy-benzamide] | 100 to 1000 | > 500 | 10 to 100 | – | – | – |
| COc1cc(-c2cnc3cc(C(C)O)ccn23)cc(OC(F)F)c1C(=O)NC1CC1 (stereo not drawn) [Cpd 140, N-cyclopropyl-2-(difluoromethoxy)-4-[7-(1-hydroxyethyl)imidazo[1,2-a]pyridin-3-yl]-6-methoxy-benzamide] | 100 to 1000 | 100 to 500 | 10 to 100 | – | – | – |
